In patent publication US7981896B2 (Athersys, Inc., priority 2006, dated 2011):

Molecular target: T1, human histamine H3 receptor (Homo sapiens, UniProt Q9Y5N1)
T1 construct: endogenous in cells; host or cells: HT1080-Gqαi5 RAGE clone (RAGE-H3), human fibrosarcoma line; integrated RAGE vector pFG8-HH3 supplies exon 1, the cell's own gene supplies the other exons
Experiment: Competition radioligand binding assay with [125I]iodoproxyfan on membranes of RAGE-H3 (HT1080-Gqαi5) cells expressing human H3 receptor
Conditions: ~0.15 nM [125I]iodoproxyfan, 1.5 hrs at room temperature, head does not name the quantity (apparent Ki by Cheng-Prussof)
Protocol: Representative compounds of the present invention that were prepared by the procedures of Examples 1-83 were evaluated in binding assays against cells expressing human H3 receptor by the following procedure.
[^125I]iodoproxyfan (2000 Ci/mmol) was obtained from Amersham Bioscience (Piscataway, N.J.). All other chemicals were either from Sigma-Aldrich (St. Louis, Mo.) or Tocris Cookson Inc. (Ellisville, Mo.).
The human histamine H3 receptor was stably expressed in HT1080 cells containing the chimeric G-protein, Gq[…]i5 (Coward et al., Anal Biochem 1999; 270:242-8). HT1080-Gqαi5 cells were grown in alpha-modified MEM containing 10% fetal bovine serum and 7 μg/ml blasticidin at 37° C. in 5% CO2/95% atmosphere. Cells (4.8×10^9) were irradiated with 50 rads from a ^137Cs source and the pFG8-HH3 RAGE (Random Activation of Gene Expression; see Harrington et al., Nature Biotechnology. 2001; 19:440-45) vector was subsequently integrated into the cells via electroporation (250V, 600 μF, 50Ω). The RAGE vector pFG8-HH3 contained cDNA sequence coding for the first exon (83 amino acids) of human H3 receptor. After electroporation, cells were plated in T75 flasks and grown in alpha-modified MEM. The culture medium was replaced 48 hrs after electroporation with alpha-modified MEM, 10% fetal bovine serum, 500 μg/ml hygromycin B and 3 μg/ml puromycin. Medium was replaced every four days during cell expansion. To identify RAGE activated cells expressing the H3 receptor, pools of approximately 10,000 colonies (5×10^7-1.5×10^8 cells total) were screened by PCR for the desired gene product (using primers specific to the RAGE vector and exon 2 of the H3 receptor). […] Positive 100 cells/well pools were identified by PCR, confirmed by sequencing, and subsequently subcloned to 0.8 cells/well. Once clones expressing the H3 receptor were identified by PCR analysis, assays (FLIPR or radioligand binding) were performed to confirm that the activated gene produced functional protein. The protein expression in the initial clones obtained from the RAGE library was increased by growth in the presence of methotrexate. Since the integrated RAGE vector contains the DHFR gene, such treatment selects for cells that have amplified the genetic locus containing the RAGE insert. Subclones obtained after methotrexate amplification were tested for functional activity in FLIPR assays to identify the clone that was most suitable for HTS. The final HT1080-Gqαi5 RAGE clone (RAGE-H3) expressing the human histamine H3 receptor was grown in alpha-modified MEM containing 10% fetal bovine serum, 3 μg/ml puromycin, 500 μg/ml hygromycin B, 3.2 μM methotrexate at 37° C. in 5% CO2/95% atmosphere.
RAGE-H3 cells (10^9) were washed twice with cold PBS, scraped off the plates, and centrifuged at 1000×g for 5 minutes. Cells were resuspended in ice-cold 10 mM Tris HCl, pH 7.4, containing 5 mM EDTA and protease inhibitor cocktail tablets (Roche Molecular Biochemicals). After incubating on ice for 10 min, the cells were homogenized with a dounce homogenizer or a polytron tissue grinder, and centrifuged at 1000×g for 10 min at 4° C. The resulting supernatant was centrifuged at 32,000×g for 30 min at 4° C. The membrane pellets were resuspended in 50 mM Tris HCl, pH 7.4, and stored at −80° C. until use. Protein concentration was determined by the Bradford method (Bio-Rad Laboratories, CA).
Binding assays were carried out in 96-well polypropylene plates in 50 mM Tris HCl, pH 7.4, containing 1 mM EDTA. Reaction mixtures contained 100 μl of membrane suspension, 50 μl of 4% DMSO, and 50 μl of increasing amounts of [^125I]iodoproxyfan (final concentration 0.0005-1.8 nM for human H3 receptor saturation binding assay). Nonspecific binding was defined by adding 10 μM clobenpropit to the reaction mixtures. […]

T1 sequence (Q9Y5N1 whole entry): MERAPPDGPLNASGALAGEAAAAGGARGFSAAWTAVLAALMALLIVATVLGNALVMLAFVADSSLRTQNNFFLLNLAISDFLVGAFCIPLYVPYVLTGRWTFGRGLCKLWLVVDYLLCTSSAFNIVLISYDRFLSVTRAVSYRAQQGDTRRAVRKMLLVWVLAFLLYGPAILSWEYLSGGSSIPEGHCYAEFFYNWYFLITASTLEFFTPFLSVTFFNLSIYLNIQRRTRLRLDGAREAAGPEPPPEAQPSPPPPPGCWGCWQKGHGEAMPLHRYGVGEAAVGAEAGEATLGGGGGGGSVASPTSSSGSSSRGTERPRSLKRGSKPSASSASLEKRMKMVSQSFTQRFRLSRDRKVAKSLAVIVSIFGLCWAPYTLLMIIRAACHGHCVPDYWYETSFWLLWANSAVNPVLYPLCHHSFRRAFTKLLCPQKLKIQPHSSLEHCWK

Compound | Ki [nM]
Cc1c2c(nn1-c1ccc(OCCCN3CCCC3)cc1)[C@H]1CCCC[C@@H]1CC2 (relative stereo) [Example 6, 3-Methyl-2-[4-(3-pyrrolidin-1-ylpropoxy)phenyl]-4,5,5a,6,7,8,9,9a-octahydro-2H-benzo[g]indazole] | < 10
Cc1cc(C(C)(C)C)n(-c2ccc(OCCCN3CCCCC3)cc2)n1 [Example 34, 5-tert-Butyl-3-methyl-1-[4-(3-piperidin-1-ylpropoxy)-phenyl]-1H-pyrazole] | < 100
3-Phenyl-1-[4-(3-pyrrolidin-1-ylpropoxy)phenyl]-4,5,6,7-tetrahydro-1H-indazole [Example 43] | < 1000
Cc1cc(CC(C)C)n(-c2ccc(OCCCN3CCCCC3)cc2)n1 [Example 29, 5-Isobutyl-3-methyl-1-[4-(3-piperidin-1-ylpropoxy)-phenyl]-1H-pyrazole] | < 100
Cc1nn(-c2ccc(OCCCN3CCOCC3)cc2)c2c1CCc1ccccc1-2 [Example 3, 3-Methyl-1-[4-(3-morpholin-1-ylpropoxy)phenyl]-4,5-dihydro-1H-benzo[g]indazole] | < 10
Cc1cc(C(=O)NC2CCCCC2)n(-c2ccc(OC3CCN(C(C)C)CC3)cc2)n1 [Example 12, 2-[4-(1-Isopropylpiperidin-4-yloxy)phenyl]-5-methyl-2H-pyrazole-3-carboxylic acid cyclohexylamide] | < 10
CCc1cc(CC)n(-c2ccc(OCCCN3CCOCC3)cc2)n1 [Example 23, 3,5-Diethyl-1-[4-(3-morpholin-1-ylpropoxy)phenyl]-1H-pyrazole] | < 1000
Cc1cc(C(=O)Nc2ccccc2)n(-c2ccc(OCCCN3CCCC3)cc2)n1 [Example 81, 5-Methyl-2-[4-(3-pyrrolidin-1-ylpropoxy)phenyl]-2H-pyrazole-3-carboxylic acid phenylamide] | < 1
Cc1cc(C(C)(C)C)n(-c2ccc(OCCCN3CCCC3)cc2)n1 [Example 33, 5-tert-Butyl-3-methyl-1-[4-(3-pyrrolidin-1-ylpropoxy)-phenyl]-1H-pyrazole] | < 10
Cc1nn(-c2ccc(OCCCN3CCCC3)cc2)c(C)c1-c1ccccc1 [Example 39, 4-Phenyl-3,5-dimethyl-1-[4-(3-pyrrolidin-1-ylpropoxy)phenyl]-1H-pyrazole] | < 10
Cc1cc(C(=O)NC2CCCCC2)n(-c2ccc(OCCCN3CCOCC3)cc2)n1 [Example 76, 5-Methyl-2-[4-(3-morpholin-4-ylpropoxy)phenyl]-2H-pyrazole-3-carboxylic acid cyclohexylamide] | < 10
3-Phenyl-1-[4-(3-pyrrolidin-1-ylpropoxy)phenyl]-4,5,6,7-tetrahydro-2H-indazole [Example 44] | < 100
Cc1cc(C(=O)NC2CCCCC2)n(-c2ccc(OCCCN3CCCCC3)cc2)n1 [Example 75, 5-Methyl-2-[4-(3-piperidin-1-ylpropoxy)phenyl]-2H-pyrazole-3-carboxylic acid cyclohexylamide] | < 1
Cc1cc(OCCCN2CCCC2)ccc1-n1nc(C(C)C)cc1C(C)C [Example 61, 3,5-Diisopropyl-1-[2-methyl-4-(3-pyrrolidin-1-ylpropoxy)phenyl]-1H-pyrazole] | < 10
c1ccc2c(c1)cnn2-c1ccc(OCCCN2CCCC2)cc1 [Example 20, 1-[4-(3-Pyrrolidin-1-ylpropoxy)phenyl]-1H-indazole] | < 10
CC1CCCN1CCCOc1ccc(-n2nc(C(F)(F)F)c3oc4ccccc4c32)cc1 (centres unmarked) [Example 67, 3-{4-[3-(2-Methyl-pyrrolidin-1-yl)-propoxy]-phenyl}-1-trifluoromethyl-3H-8-oxa-2,3-diaza-cyclopenta[a]indene] | < 100

Compound | Ki [nM]
Cc1c2c(nn1-c1ccc(OCCCN3CCCCC3)cc1)CCC2 [Example 60, 3-Methyl-2-[4-(3-piperidin-1-yl-propoxy)-phenyl]-2,4,5,6-tetrahydro-cyclopentapyrazole] | < 10
Cc1cc(C(=O)NCC2CCCCC2)n(-c2ccc(OCCCN3CCCC3)cc2)n1 [Example 79, 5-Methyl-2-[4-(3-pyrrolidin-1-ylpropoxy)phenyl]-2H-pyrazole-3-carboxylic acid cyclohexylmethylamide] | < 1
CCCCc1c(C)nn(-c2ccc(OCCCN3CCCC3)cc2)c1C [Example 38, 4-Butyl-3,5-dimethyl-1-[4-(3-pyrrolidin-1-ylpropoxy)phenyl]-1H-pyrazole] | < 10
CCc1cc(CC)n(-c2ccc(OCCCN3CCCCC3)cc2)n1 [Example 22, 3,5-Diethyl-1-[4-(3-piperidin-1-ylpropoxy)phenyl]-1H-pyrazole] | < 10
C[C@@H]1CCCN1CCCOc1ccc(-n2nc(C(F)(F)F)cc2-c2ccccc2)cc1 [Example 51, 1-{4-[3-(2-(R)-Methyl-pyrrolidin-1-yl)-propoxy]-phenyl}-5-phenyl-3-trifluoromethyl-1H-pyrazole] | < 100
Cc1cc(CC(C)C)nn1-c1ccc(OCCCN2CCCCC2)cc1 [Example 30] | < 10
Cc1cc(C(=O)NC2CCC2)n(-c2ccc(OCCCN3CCCC3)cc2)n1 [Example 80, 5-Methyl-2-[4-(3-pyrrolidin-1-ylpropoxy)phenyl]-2H-pyrazole-3-carboxylic acid cyclobutylamide] | < 1
Cc1nn(-c2ccc(OCCCN3CCCC3C)cc2)c2c1sc1ccccc12 (centres unmarked) [Example 65, 3-Methyl-1-{4-[3-(2-methyl-pyrrolidin-1-yl)-propoxy]-phenyl}-1H-benzo[4,5]thieno[3,2-c]pyrazole] | < 10
Cc1cc(-c2ccccc2)nn1-c1ccc(OCCCN2CCCC2)cc1 [Example 40, 5-Methyl-3-phenyl-1-[4-(3-pyrrolidin-1-ylpropoxy)phenyl]-1H-pyrazole] | < 10
FC(F)(F)c1cc(-c2ccccc2)n(-c2ccc(OCCCN3CCOCC3)cc2)n1 [Example 53, 4-{3-[4-(5-Phenyl-3-trifluoromethyl-pyrazol-1-yl)-phenoxy]-propyl}-morpholine] | < 1000
Cc1cc(C(=O)N2CCCC2)n(-c2ccc(OCCCN3CCCC3)cc2)n1 [Example 78, {5-Methyl-2-[4-(3-pyrrolidin-1-ylpropoxy)phenyl]-2H-pyrazol-3-yl}pyrrolidin-1-ylmethanone] | < 10
Cc1cc(CC(C)C)n(-c2ccc(OCCCN3CCCC3)cc2)n1 [Example 28, 5-Isobutyl-3-methyl-1-[4-(3-pyrrolidin-1-ylpropoxy)-phenyl]-1H-pyrazole] | < 100
Cc1cc(C(=O)NC2CCCCC2)n(-c2ccc(OC3CCN(C4CCCCC4)CC3)cc2)n1 [Example 11, 2-[4-(1-Cyclohexylpiperidin-4-yloxy)phenyl]-5-methyl-2H-pyrazole-3-carboxylic acid cyclohexylamide] | < 10
Cc1c2c(nn1-c1ccc(OCCCN3CCCC3)cc1)CCCC2 [Example 56, 3-Methyl-2-[4-(3-pyrrolidin-1-yl-propoxy)-phenyl]-4,5,6,7-tetrahydro-2H-indazole] | < 1
FC(F)(F)c1cc(-c2ccccc2)n(-c2ccc(OCCCN3CCCC3)cc2)n1 [Example 50, 5-Phenyl-1-[4-(3-pyrrolidin-1-yl-propoxy)-phenyl]-3-trifluoromethyl-1H-pyrazole] | < 10
Cc1nn(-c2ccc(OCCCN3CCCC3)cc2)c2c1CC[C@@H]1CCCC[C@@H]21 (relative stereo) [Example 5, 3-Methyl-1-[4-(3-pyrrolidin-1-ylpropoxy)phenyl]-4,5,5a,6,7,8,9,9a-octahydro-1H-benzo[g]indazole] | < 1
